Where two headings read alike, the source gives them in different places.
Experiments:
SHP2 = SHP2 (Homo sapiens (Human), UniProt Q06124); assay: SHP2 Biochemical Assay (DiFMUP conversion, pIRS1-activated)
Experimental: SHP2 activity was monitored by measuring the conversion of the surrogate substrate 6,8-difluoromethylumbelliferyl phosphate (DiFMUP) to the fluorescent product, 6,8-difluoromethylumbelliferone (DiFMU).
SHP2 was pre-incubated with test compounds and the activating peptide pIRS1 (H2N-LN(pY)IDLDLV-(PEG)8-LST(pY)ASINFQK-amide) for 30 min, prior to addition of the 6,8-difluoromethylumbelliferyl phosphate (DiFMUP), (Thermo Fisher D6567). Final assay concentrations were 10 pM SHP2, […] pIRS1 peptide, 50 μM DiFMUP, 25 mM Bis-Tris propane, pH 7.0, 150 mM NaCl, 0.05% (v/v) Tween-20, 0.5 mM TCEP and 5% (v/v) DMSO. Rates of reaction were then measured over 30 min by monitoring fluorescence on a BMG Pherastar reader at excitation 360 nm/emission 450 nm. IC50 values were calculated in singlicate from the normalized dose-response plots using four parameter logistic curve fit. The Experiment for each compound was carried out in one time or multiple times, and the IC50 values were shown as a single value (for a compound measured in a single experiment) or an average value (for a compound measured in multiple experiments).

[1] = test system: pERK (phospho-p44/42 ERK) in HCC827 cells; assay: Cellular pERK Inhibition Assay, Method A (In-Cell Western); assay type: cell-based; settings: Homo sapiens
Experimental: Cellular pERK Inhibition Assay
pERK levels were determined using the In-Cell Western assay. HCC827 cells (ATCC, Manassas, USA) were seeded into 384-well plates at a density of 1×10^4 cells/well in RPMI1640 medium supplemented with 10% FBS and incubated 24h. Compounds were diluted first in DMSO and then into serum-free medium, before being added to cells in quadruplicate to give a final concentration of 0.2% DMSO. Plates were incubated at 37° C. for the indicated time in a humidified atmosphere of 5% CO2 in air.
Following compound treatment, cells were fixed with formalin neutral buffer solution for 20 minutes at room temperature. Plates were washed three times with 0.1% Triton-X in PBS and cells were blocked for 1 hour with Odyssey blocking buffer (LI-COR, #927-40000). After shaking out blocking buffer, cells were incubated with phospho-p44/42 ERK antibody (Cell Signalling Technology, #4370, 1:200) diluted in Odyssey blocking buffer at 4° C. overnight. Plates were washed again and cells were incubated for 1 hour with Goat anti-Rabbit […] (LI-COR, #926-32211, 1:800) diluted in Odyssey blocking buffer. After washing and removing wash solution completely using a centrifuge machine, cells were scanned on the Odyssey (LI-COR), following the manufacturer's instructions. The average signal from blank wells (no cells added) was subtracted from the signals from each sample well. Levels of pERK were then expressed as percent of control, using DMSO treated samples as control. The relative IC50 values were calculated in quadruplicate from the normalized dose-response plots using four parameter logistic curve fit. The Experiment for each compound was carried out in one time or multiple times, and the IC50 values were shown as a single value (for a compound measured in a single experiment) or an average value (for a compound measured in multiple experiments).

[2] = Table 19, head prints unit as "-M"
[3] = Table 19, head prints unit as "-M", read-out: pERK (IC50) Method A
[4] = Table 20, read-out: pERK (IC50, μM) Method A

Sequence of SHP2 (Q06124 whole entry): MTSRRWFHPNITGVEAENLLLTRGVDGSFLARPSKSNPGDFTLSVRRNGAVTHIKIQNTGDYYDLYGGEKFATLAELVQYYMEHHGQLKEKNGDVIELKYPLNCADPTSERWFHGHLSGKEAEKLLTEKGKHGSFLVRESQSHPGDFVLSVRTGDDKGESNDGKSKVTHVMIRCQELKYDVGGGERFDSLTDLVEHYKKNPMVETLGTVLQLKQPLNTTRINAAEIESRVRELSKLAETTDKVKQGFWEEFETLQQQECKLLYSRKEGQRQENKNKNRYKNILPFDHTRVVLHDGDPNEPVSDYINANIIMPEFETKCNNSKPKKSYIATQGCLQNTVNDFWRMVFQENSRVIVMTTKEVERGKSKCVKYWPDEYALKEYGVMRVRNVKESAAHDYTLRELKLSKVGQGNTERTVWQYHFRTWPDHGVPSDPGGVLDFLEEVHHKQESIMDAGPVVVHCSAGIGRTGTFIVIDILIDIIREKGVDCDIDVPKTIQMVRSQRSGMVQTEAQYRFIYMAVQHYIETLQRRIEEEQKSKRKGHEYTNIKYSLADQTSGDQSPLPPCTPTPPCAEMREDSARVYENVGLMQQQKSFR

| SMILES | IC50 (SHP2; [2]) | IC50 [1, 3] | IC50 (SHP2; Table 20) | IC50 [1, 4] |
| --- | --- | --- | --- | --- |
| Cn1cc2c(Cl)c(-c3c[nH]c4nc(N5[C@@H]6CC[C@H]5[C@H](F)[C@H](N)C6)n(C)c(=O)c34)ccc2n1 (racemic) [Example 26, rac-2-((1S,2R,3R,5R)-3-amino-2-fluoro-8-azabicyclo[3.2.1]octan-8-yl)-5-(4-chloro-2-methyl-2H-indazol-5-yl)-3-methyl-3,7-dihydro-4H-pyrrolo[2,3-d]pyrimidin-4-one] | 11 nM | 0.088 µM | – | – |
| Cn1cc2c(Cl)c(-c3n[nH]c4nc(N5C6CCCC5CNC6)n(C)c(=O)c34)ccc2n1 [Example 117, 6-(3,9-diazabicyclo[3.3.1]nonan-9-yl)-3-(4-chloro-2-methyl-2H-indazol-5-yl)-5-methyl-1,5-dihydro-4H-pyrazolo[3,4-d]pyrimidin-4-one] | 25 nM | 0.64 µM | – | – |
| CN(C)C(=O)Cc1nc2ccc(-c3c[nH]c4nc(N5C6CCCC5CNC6)n(C)c(=O)c34)c(Cl)c2s1 [Example 84, 2-(6-(2-(3,9-diazabicyclo[3.3.1]nonan-9-yl)-3-methyl-4-oxo-4,7-dihydro-3H-pyrrolo[2,3-d]pyrimidin-5-yl)-7-chlorobenzo[d]thiazol-2-yl)-N,N-dimethylacetamide] | 18 nM | 0.55 µM | – | – |
| Cn1cc2c(Cl)c(-c3c[nH]c4nc(N5CC[C@H](CN)C5)n(C)c(=O)c34)ccc2n1 [Example 60, (R)-2-(3-(aminomethyl)pyrrolidin-1-yl)-5-(4-chloro-2-methyl-2H-indazol-5-yl)-3-methyl-3,7-dihydro-4H-pyrrolo[2,3-d]pyrimidin-4-one] | 82 nM | 3.8 µM | – | – |
| Cn1nc2ccc(-c3c[nH]c4nc(N5C6CCCC5CNC6)n(C)c(=O)c34)c(Cl)c2c1Cl [Example 99, 2-(3,9-diazabicyclo[3.3.1]nonan-9-yl)-5-(3,4-dichloro-2-methyl-2H-indazol-5-yl)-3-methyl-3,7-dihydro-4H-pyrrolo[2,3-d]pyrimidin-4-one] | 4.5 nM | 0.057 µM | – | – |
| Cn1cc2cc(-c3c[nH]c4nc(N5[C@@H]6CC[C@H]5C[C@@H](N)C6)n(C)c(=O)c34)ccc2n1 [Example 67, 2-(endo-3-amino-8-azabicyclo[3.2.1]octan-8-yl)-3-methyl-5-(2-methyl-2H-indazol-5-yl)-3,7-dihydro-4H-pyrrolo[2,3-d]pyrimidin-4-one] | 340 nM | 3.4 µM | – | – |
| Cn1nc2ccc(-c3c[nH]c4nc(N5[C@H]6CC[C@@H]5[C@](C)(N)C6)n(C)c(=O)c34)c(Cl)c2c1Cl (racemic) [Example 173, rac-2-((1R,2R,4S)-2-amino-2-methyl-7-azabicyclo[2.2.1]heptan-7-yl)-5-(3,4-dichloro-2-methyl-2H-indazol-5-yl)-3-methyl-3,7-dihydro-4H-pyrrolo[2,3-d]pyrimidin-4-one] | – | – | 2.5 nM | 0.14 µM |
| Cn1cc2c(Cl)c(-c3c[nH]c4nc(N5CCC(N)(CO)C5)n(C)c(=O)c34)ccc2n1 (stereo not drawn) [Example 58, 2-(3-amino-3-(hydroxymethyl)pyrrolidin-1-yl)-5-(4-chloro-2-methyl-2H-indazol-5-yl)-3-methyl-3,7-dihydro-4H-pyrrolo[2,3-d]pyrimidin-4-one] | 99 nM | > 10 µM | – | – |
| Cn1nc2ccc(-c3c[nH]c4nc(N5[C@@H]6CC[C@H]5C[C@@H](N)C6)n(C)c(=O)c34)c(Cl)c2c1Cl [Example 78, 2-(endo-3-amino-8-azabicyclo[3.2.1]octan-8-yl)-5-(3,4-dichloro-2-methyl-2H-indazol-5-yl)-3-methyl-3,7-dihydro-4H-pyrrolo[2,3-d]pyrimidin-4-one] | 6 nM | 0.13 µM | – | – |
| Cn1cc2c(Cl)c(-c3c[nH]c4nc(N5[C@@H]6CC[C@H]5[C@@H](N)C6)n(C)c(=O)c34)ccc2n1 [Example 46, 2-((1S,2S,4R)-2-amino-7-azabicyclo[2.2.1]heptan-7-yl)-5-(4-chloro-2-methyl-2H-indazol-5-yl)-3-methyl-3,7-dihydro-4H-pyrrolo[2,3-d]pyrimidin-4-one] | 33 nM | 0.42 µM | – | – |
| Cn1cc2c(Cl)c(-c3c[nH]c4nc(N5CC6C(N)C6C5)n(C)c(=O)c34)ccc2n1 (stereo not drawn) [Example 62, 2-(6-amino-3-azabicyclo[3.1.0]hexan-3-yl)-5-(4-chloro-2-methyl-2H-indazol-5-yl)-3-methyl-3,7-dihydro-4H-pyrrolo[2,3-d]pyrimidin-4-one] | 23 nM | 0.36 µM | – | – |
| Cc1nc2ccc(-c3c[nH]c4nc(N5CC6COCC(C5)N6)n(C)c(=O)c34)c(Cl)c2s1 [Example 81, 2-(3-oxa-7,9-diazabicyclo[3.3.1]nonan-7-yl)-5-(7-chloro-2-methylbenzo[d]thiazol-6-yl)-3-methyl-3,7-dihydro-4H-pyrrolo[2,3-d]pyrimidin-4-one] | 14 nM | 0.78 µM | – | – |
| CCc1nc2ccc(-c3c[nH]c4nc(N5[C@@H]6CC[C@H]5C[C@@H](N)C6)n(C)c(=O)c34)c(Cl)c2o1 [Example 69, 2-(endo-3-amino-8-azabicyclo[3.2.1]octan-8-yl)-5-(7-chloro-2-ethylbenzo[d]oxazol-6-yl)-3-methyl-3,7-dihydro-4H-pyrrolo[2,3-d]pyrimidin-4-one] | 120 nM | 3 µM | – | – |
| Cn1cc2c(Cl)c(-c3c[nH]c4nc(N5CC6CCC5CN6)n(C)c(=O)c34)ccc2n1 (stereo not drawn) [Example 32, 2-(2,5-diazabicyclo[2.2.2]octan-2-yl)-5-(4-chloro-2-methyl-2H-indazol-5-yl)-3-methyl-3,7-dihydro-4H-pyrrolo[2,3-d]pyrimidin-4-one] | 17 nM | 0.92 µM | – | – |
| COc1cnc2ccc(-c3c[nH]c4nc(N5[C@H]6CC[C@@H]5[C@H](N)C6)n(C)c(=O)c34)c(Cl)c2n1 [Example 169, 2-((1R,2R,4S)-2-amino-7-azabicyclo[2.2.1]heptan-7-yl)-5-(5-chloro-3-methoxyquinoxalin-6-yl)-3-methyl-3,7-dihydro-4H-pyrrolo[2,3-d]pyrimidin-4-one] | – | – | 3.3 nM | 0.073 µM |
| CN[C@@H]1C[C@@H]2CC[C@H]1N2c1nc2[nH]nc(-c3ccc4nc(C)sc4c3Cl)c2c(=O)n1C [Example 124, 3-(7-chloro-2-methylbenzo[d]thiazol-6-yl)-5-methyl-6-((1R,2R,4S)-2-(methylamino)-7-azabicyclo[2.2.1]heptan-7-yl)-1,5-dihydro-4H-pyrazolo[3,4-d]pyrimidin-4-one] | 19 nM | 0.43 µM | – | – |
| CCn1cc2c(Cl)c(-c3n[nH]c4nc(N5C[C@@H]6CC[C@H]5[C@H]6N)n(C)c(=O)c34)ccc2n1 (racemic) [Example 125, rac-6-((1S,4S,7S)-7-amino-2-azabicyclo[2.2.1]heptan-2-yl)-3-(4-chloro-2-ethyl-2H-indazol-5-yl)-5-methyl-1,5-dihydro-4H-pyrazolo[3,4-d]pyrimidin-4-one] | 17 nM | 0.26 µM | – | – |
| Cn1cc2c(Cl)c(-c3c[nH]c4nc(N5CC6CCC(C5)N6)n(C)c(=O)c34)ccc2n1 [Example 28, 2-(3,8-diazabicyclo[3.2.1]octan-3-yl)-5-(4-chloro-2-methyl-2H-indazol-5-yl)-3-methyl-3,7-dihydro-4H-pyrrolo[2,3-d]pyrimidin-4-one] | 19 nM | 0.68 µM | – | – |
| Cn1cc2c(Cl)c(-c3c[nH]c4nc(N5CC6CC(C5)N6)n(C)c(=O)c34)ccc2n1 [Example 31, 2-(3,6-diazabicyclo[3.1.1]heptan-3-yl)-5-(4-chloro-2-methyl-2H-indazol-5-yl)-3-methyl-3,7-dihydro-4H-pyrrolo[2,3-d]pyrimidin-4-one] | 40 nM | 1 µM | – | – |
| Cn1nc2ccc(-c3c[nH]c4nc(N5C[C@H]6CC[C@@H]5[C@@H]6N)n(C)c(=O)c34)c(Cl)c2c1Cl [Example 172, 2-((1R,4R,7R)-7-amino-2-azabicyclo[2.2.1]heptan-2-yl)-5-(3,4-dichloro-2-methyl-2H-indazol-5-yl)-3-methyl-3,7-dihydro-4H-pyrrolo[2,3-d]pyrimidin-4-one] | – | – | – | 0.016 µM |

From patent US12037345B2, “Heterobicyclic compounds for inhibiting the activity of SHP2” (TAIHO PHARMACEUTICAL CO., LTD., priority 2018, dated 2024)
